From US20260176289A1, “SMALL MOLECULE INHIBITORS OF KRAS PROTEINS” (Merck Sharp & Dohme LLC, priority 2022, published 2026)

What was measured:
Assay type in all cases: biochemical
[1] = target: T1, KRAS G12V (amino acids 1-169) (Homo sapiens, UniProt P01116, G12V); assay: SOS-catalyzed nucleotide exchange assay (Procedure B, BODIPY FL GDP displacement), KRAS G12V; conditions: read-out: KRAS G12V GNE IC50
T1 construct: made in house; host or cells: E. coli
Experimental: (§1) Procedure for SOS-Catalyzed Nucleotide Exchange Assay for KRAS-G12C/D/V/WT (Procedure B)
(§2) Recombinant KRAS G12C (amino acids 1-169, SEQ ID NO:9), KRAS G12D (amino acids 1-169, SEQ ID NO: 10), KRAS G12V (amino acids 1-169, SEQ ID NO: 11), KRAS WT (amino acids 1-169, SEQ ID NO:12) and SOS1 (amino acids 564-1049, SEQ ID NO: 13) proteins were expressed in E. coli and purified by affinity chromatography. To prepare each BODIPY™ FL GDP-bound KRAS protein, 50 μM KRAS proteins were incubated with 0.5 mM BODIPY™ FL GDP (Invitrogen, G22360) in a loading buffer (20 mM Tris-HCl pH 7.5, 50 mM NaCl, 1 mM DTT and 2.5 mM EDTA) for 1 hour on ice. After the incubation, MgCl2 was added to a final concentration of 10 mM, followed by an incubation at room temperature for 30 minutes. The mixtures were allowed to pass through a NAP-5 column to remove free nucleotides and purified BODIPY™ FL GDP-bound KRAS G12C, G12D, G12V and WT proteins were used for compound evaluation.
(§3) The inhibitory activity of compounds on recombinant KRAS is measured by the displacement of the bound BODIPY™ GDP. Specifically, 2.5 nM of each BODIPY™ FL GDP-bound KRAS complex was incubated with various concentrations of compound in a reaction buffer (20 mM Tris-HCl pH 7.5, 100 mM NaCl, 1 mM MgCl2, 2 mM DTT, 0.1% Tween 20) at 25° C. for 1 hour. After the incubation, recombinant SOS1 and GMPPNP (Jena Bioscience GmbH, NU-401) were added and incubated at room temperature for 30 minutes to proceed SOS1-dependent GDP-GTP exchange reaction on KRAS. Displacement of BODIPY™ FL GDP by Guanosine-5′-[(β,γ)-imido]triphosphate, Tetralithium salt (GMPPNP) was measured by calculating the ratio of fluorescence intensities of BODIPY™ FL before and after the exchange reaction. Percent Inhibition was calculated by setting the fluorescence ratio from the reaction without test compound (DMSO control) and the fluorescence ratio from the reaction without SOS1 and GMPPNP as 0% and 100% inhibition, respectively. Dose response curves were analyzed using a 4-parameter logistic model to calculate IC50 values.

[2] = target: T2, KRAS WT (amino acids 1-169) (Homo sapiens, UniProt P01116); assay: SOS-catalyzed nucleotide exchange assay (Procedure B, BODIPY FL GDP displacement), KRAS WT; conditions: read-out: KRAS WT GNE IC50
T2 construct: made in house; host or cells: E. coli
T2 sequence (P01116 with tags, fused parts or gaps isoform P01116-2): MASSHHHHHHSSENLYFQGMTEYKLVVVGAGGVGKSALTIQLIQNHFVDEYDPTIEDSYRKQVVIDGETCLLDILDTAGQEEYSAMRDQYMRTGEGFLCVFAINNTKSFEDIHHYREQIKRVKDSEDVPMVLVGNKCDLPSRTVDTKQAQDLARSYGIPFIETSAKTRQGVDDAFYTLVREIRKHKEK
Experimental: as §1, §2, §3

[3] = target: T3, KRAS G12C (amino acids 1-169) (Homo sapiens, UniProt P01116, G12C); assay: SOS-catalyzed nucleotide exchange assay (Procedure B, BODIPY FL GDP displacement), KRAS G12C; conditions: read-out: KRAS G12C GNE IC50
T3 construct: made in house; host or cells: E. coli
T3 sequence (P01116 with tags, fused parts or gaps isoform P01116-2 G12C): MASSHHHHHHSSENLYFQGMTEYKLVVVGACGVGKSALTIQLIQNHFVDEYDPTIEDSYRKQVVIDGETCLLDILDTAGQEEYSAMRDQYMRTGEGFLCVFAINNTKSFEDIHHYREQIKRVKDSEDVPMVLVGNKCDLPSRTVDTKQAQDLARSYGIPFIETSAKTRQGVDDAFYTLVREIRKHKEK
Experimental: as §1, §2, §3

[4] = target: T4, KRAS G12D (amino acids 1-169) (Homo sapiens, UniProt P01116, G12D); assay: SOS-catalyzed nucleotide exchange assay (Procedure B, BODIPY FL GDP displacement), KRAS G12D; conditions: read-out: KRAS G12D GNE IC50
T4 construct: made in house; host or cells: E. coli
T4 sequence (P01116 with tags, fused parts or gaps isoform P01116-2 G12D): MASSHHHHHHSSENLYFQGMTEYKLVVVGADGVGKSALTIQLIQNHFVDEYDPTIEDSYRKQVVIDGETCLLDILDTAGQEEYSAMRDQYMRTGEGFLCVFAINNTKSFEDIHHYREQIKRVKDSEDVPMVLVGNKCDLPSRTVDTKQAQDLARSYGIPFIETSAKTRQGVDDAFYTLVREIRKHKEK
Experimental: as §1, §2, §3

T1 sequence (P01116 with tags, fused parts or gaps isoform P01116-2 G12V): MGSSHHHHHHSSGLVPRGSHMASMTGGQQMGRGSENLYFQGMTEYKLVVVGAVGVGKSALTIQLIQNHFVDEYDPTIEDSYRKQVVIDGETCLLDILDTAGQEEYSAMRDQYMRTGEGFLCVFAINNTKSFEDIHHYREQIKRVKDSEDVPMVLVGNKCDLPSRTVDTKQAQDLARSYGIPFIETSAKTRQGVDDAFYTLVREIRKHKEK

C[C@@]1(O)COCCN(c2nc(OC[C@@]34CCCN3C[C@H](F)C4)nc3c(I)c4c(-c5c(C6CC6)c(Cl)cc6[nH]ncc56)nccn4c23)C1 [Ex-303, (S)-4-(9-(6-chloro-5-cyclopropyl-1H-indazol-4-yl)-2-(((2R,7aS)-2-fluorotetrahydro-1H-pyrrolizin-7a(5H)-yl)methoxy)-10-iodopyrazino [1′,2′:1,5]pyrrolo [3,2-d]pyrimidin-4-yl)-6-methyl-1,4-oxazepan-6-ol]
IC50 [1]: 837 nM | IC50 [2]: 732 nM | IC50 [3]: 1140 nM | IC50 [4]: 380 nM

COCC1CCc2cc3[nH]ncc3c(-c3nccc4c3sc3nc(OC[C@@]56CCCN5C[C@H](F)C6)nc(N5CCOC[C@@](C)(O)C5)c34)c21 (single isomer, unassigned) [Ex-97]
IC50 [1]: 7.19 nM | IC50 [2]: 8.37 nM | IC50 [3]: 9.73 nM | IC50 [4]: 3.16 nM

Cc1cc2[nH]ncc2c(-c2nccc3c2sc2nc(OC[C@@]45CCCN4C[C@H](F)C5)nc(NC45CC(C4)C5)c23)c1C(F)(F)F [Ex-181, N-(bicyclo[1.1.1]pentan-1-yl)-2-(((2R,7aS)-2-fluoro-tetrahydro-1H-pyrrolizin-7a(5H)-yl)-methoxy)-8-(6-methyl-5-(trifluoromethyl)-1H-indazol-4-yl)pyrido [4′,3′:4,5]thieno[2,3-d] pyrimidin-4-amine]
IC50 [1]: 758 nM | IC50 [2]: 1480 nM | IC50 [3]: 787 nM | IC50 [4]: 1320 nM

C#CC1CCc2cc3[nH]ncc3c(-c3nccc4c3sc3nc(OC[C@@]56CCCN5C[C@H](F)C6)nc(N5CCOC[C@@](C)(O)C5)c34)c21 (stereo partly drawn) [Ex-166, (6S)-4-(8-(5-ethyn-yl-1,5,6,7-tetrahydro-cyclopenta[f]indazol-4-yl)-2-(((2R,7aS)-2-fluorotetrahydro-1H-pyrrolizin-7a(5H)-yl)methoxy)-pyrido[4′,3′:4,5]thieno[2,3-d]pyr-imidin-4-yl)-6-meth-yl-1,4-oxazepan-6-ol]
IC50 [1]: 15.8 nM | IC50 [2]: 12.4 nM | IC50 [3]: 18 nM | IC50 [4]: 6.65 nM

CC1(C)Cc2cc3[nH]ncc3c(-c3nccc4c3sc3nc(OC[C@@]56CCCN5C[C@H](F)C6)nc(N5CCOC[C@@](C)(O)C5)c34)c2C1 [Ex-112, (6S)-4-(8-(6,6-dimethyl-1,5,6,7-tetrahydrocyclopenta[f]in-dazol-4-yl)-2-(((2R,7aS)-2-fluorotetrahydro-1H-pyrrolizin-7a(5H)-yl)methoxy)pyrido[4′,3′:4,5]thi-eno[2,3-d]pyrimidin-4-yl)-6-methyl-1,4-oxazepan-6-ol]
IC50 [1]: 402 nM | IC50 [2]: 473 nM | IC50 [3]: 518 nM | IC50 [4]: 274 nM

C[C@@]1(O)COCCN(c2nc(OC[C@@]34CCCN3C[C@H](F)C4)nc3sc4c(-c5c(C6=CCOC6)c(Cl)cc6[nH]ncc56)nccc4c23)C1 [Ex-74, (6S)-4-(8-(6-chloro-5-(2,5-dihydrofuran-3-yl)-1H-indazol-4-yl)-2-(((2R,7aS)-2-fluorotetrahydro-1H-pyrrolizin-7a(5H)-yl)methoxy)pyrido[4′,3′:4,5]thi-eno[2,3-d]pyrimidin-4-yl)-6-methyl-1,4-oxazepan-6-ol]
IC50 [1]: 1260 nM | IC50 [2]: 933 nM | IC50 [3]: 819 nM | IC50 [4]: 438 nM

CCCC1CCc2cc3[nH]ncc3c(-c3nccc4c3sc3nc(OC[C@@]56CCCN5C[C@H](F)C6)nc(N5CCOC[C@@](C)(O)C5)c34)c21 (stereo partly shown) [Ex-95]
IC50 [1]: 65 nM | IC50 [2]: 99.4 nM | IC50 [3]: 91.5 nM | IC50 [4]: 49.8 nM

CCC1CCc2cc3[nH]ncc3c(-c3nccc4c3sc3nc(OC[C@@]56CCCN5C/C(=C\F)C6)nc(N5CCOC[C@@](C)(O)C5)c34)c21 (stereo partly drawn) [Ex-94, (6S)-4-(8-(5-ethyl-1,5,6,7-tetrahydrocyclopenta[f]in-dazol-4-y1)-2-(((S,Z)-2-(fluoromethylene)tetrahy-dro-1H-pyrrolizin-7a(5H)-yl)methoxy)pyrido[4′,3':4,5]thi-eno[2,3-d]pyrimidin-4-y1)-6-methyl-1,4-oxazepan-6-ol]
IC50 [1]: 4.2 nM | IC50 [2]: 3.82 nM | IC50 [3]: 5.33 nM | IC50 [4]: 1.68 nM

CC1Cc2cc3[nH]ncc3c(-c3nccc4c3sc3nc(OC[C@@]56CCCN5C[C@H](F)C6)nc(N5CCOC[C@@](C)(O)C5)c34)c2C1 (stereo partly drawn) [Ex-113, (6S)-4-(2-(((2R,7aS)-2-fluorotetrahydro-1H-pyrrolizin-7a(5H)-yl)methoxy)-8-(6-methyl-1,5,6,7-tetrahydrocyclopenta[f]in-dazol-4-yl)pyrido[4′,3′:4,5]thieno [2,3-d]pyrimidin-4-yl)-6-methy1-1,4-oxazepan-6-ol]
IC50 [1]: 123 nM | IC50 [2]: 150 nM | IC50 [3]: 177 nM | IC50 [4]: 88.5 nM

Cc1cc2[nH]ncc2c(-c2nccn3c2c(F)c2nc(OC[C@@]45CCCN4C[C@H](F)C5)nc(N4CCOC[C@@](C)(O)C4)c23)c1C1CC1 [Ex-306, (S)-4-(9-(5-cyclopropy1-6-methyl-1H-indazol-4-yl)-10-fluoro-2-(((2R,7aS)-2-fluorotetrahydro-1H-pyrrolizin-7a(5H)-yl)methoxy)pyrazino[1′2′:1,5]pyrrolo[3,2-d]pyrimidin-4-yl)-6-methyl-1,4-oxazepan-6-o1]
IC50 [1]: 18.9 nM | IC50 [2]: 16.6 nM | IC50 [3]: 10.8 nM | IC50 [4]: 4.7 nM

C[C@@]1(O)COCCN(c2nc(OC[C@@]34CCCN3C[C@H](F)C4)nc3sc4c(-c5c(C6(F)CC6)c(C6CC6)cc6[nH]ncc56)nccc4c23)C1 [Ex-57, (6S)-4-(8-(6-cyclopropyl-5-(1-fluorocyclopropyl)-1H-indazol-4-yl)-2-(((2R,7aS)-2-fluorotetrahydro-1H-pyrrolizin-7a(5H)-yl)methoxy)pyrido[4′,3′: 4,5]thieno[2,3-d]pyrimidin-4-yl)-6-methyl-1,4-oxazepan-6-ol]
IC50 [1]: 41.3 nM | IC50 [2]: 29.3 nM | IC50 [3]: 62.5 nM | IC50 [4]: 26.9 nM

CCC1CC(F)(F)c2cc3[nH]ncc3c(-c3nccc4c3sc3nc(OC[C@@]56CCCN5C[C@H](F)C6)nc(N5CCOC[C@@](C)(O)C5)c34)c21 (stereo partly drawn) [Ex-102, (6S)-4-(8-(5-ethyl-7,7-difluoro-1,5,6,7-tetrahydrocyclopenta[f]in-dazol-4-yl)-2-(((2R,7aS)-2-fluorotetrahydro-1H-pyrrolizin-7a(5H)-yl)methoxy)pyrido[4′,3′:4,5]thi-eno[2,3-d]pyrimidin-4-yl)-6-methyl-1,4-oxazepan-6-ol]
IC50 [1]: 10.4 nM | IC50 [2]: 7.84 nM | IC50 [3]: 10.3 nM | IC50 [4]: 3.56 nM

Cc1cc2[nH]ncc2c(-c2nccn3c2c(C)c2nc(OC[C@@]45CCCN4C[C@H](F)C5)nc(N4CCOC[C@@](C)(O)C4)c23)c1C(F)(F)F (single isomer, unassigned) [Ex-301]
IC50 [1]: 86.1 nM | IC50 [2]: 107 nM | IC50 [3]: 107 nM | IC50 [4]: 49.5 nM

Cc1cc2[nH]ncc2c(-c2nccc3c2sc2nc(OC[C@@]45CCCN4C[C@H](F)C5)nc(N)c23)c1C(F)(F)F [Ex-189, 2-(((2R,7aS)-2-fluoro-tetrahydro-1H-pyrrolizin-7a(5H)-yl)methoxy)-8-(6-methyl-5-(trifluoromethyl)-1H-indazol-4-yl)pyrido [4′,3′:4,5]thieno[2,3-d] pyrimidin-4-amine]
IC50 [1]: 2200 nM | IC50 [2]: 2250 nM | IC50 [3]: 1360 nM | IC50 [4]: 3010 nM

CO[C@]1(C)COCCN(c2nc(OC[C@@]34CCCN3C[C@H](F)C4)nc3sc4c(-c5c(C(F)(F)F)c(C)cc6[nH]ncc56)nccc4c23)C1 [Ex-203, (6S)-4-(2-(((2R,7aS)-2-fluorotetrahydro-1H-pyrrolizin-7a(5H)-yl)methoxy)-8-(6-methyl-5-(trifluoromethyl)-1H-indazol-4-yl)pyrido[4′,3′:4,5]thieno[2,3-d]pyrimidin-4-yl)-6-methoxy-6-methyl-1,4-oxazepane]
IC50 [1]: 936 nM | IC50 [2]: 767 nM | IC50 [3]: 590 nM | IC50 [4]: 493 nM

C#Cc1c(Cl)cc2[nH]ncc2c1-c1nccc2c1sc1nc(OC[C@@]34CCCN3C[C@H](F)C4)nc(N3CCOC[C@@](C)(O)C3)c12 [Ex-158, (6S)-4-(8-(6-chloro-5-ethynyl-1H-indazol-4-yl)-2-(((2R,7aS)-2-fluorotetrahydro-1H-pyrrolizin-7a(5H)-yl)methoxy)pyrido[4′,3′:4,5]thieno[2,3-d]pyrimidin-4-yl)-6-methyl-1,4-oxazepan-6-ol]
IC50 [1]: 15.5 nM | IC50 [2]: 26.9 nM | IC50 [3]: 15.4 nM | IC50 [4]: 7.18 nM
